Assays:
[1] = system: HPDE cells; design: method as in PMID 29287249; settings: read-out: Activity EC50, HPDE (normal cells); cited from earlier work
[2] = system: GRP78, ATF6, IRE1 and PERK; experiment: qRT-PCR of ER stress markers in pancreatic cancer cells; format: cell-based, human and murine; settings: 50 µM, 2 h
Protocol: Total RNA was extracted using a phenol/chloroform method, after which 1 µg RNA was reverse-transcribed using an iScript Reverse Transcription Supermix kit according to the manufacturer’s instructions (Bio-Rad Laboratories). 25 ng cDNA was amplified using 10 µl of an IQ™ SYBR Green Supermix (Bio-Rad Laboratories). Primers were designed using qPrimer Depot software (http://primerdepot.nci.nih.gov/). qRT-PCR was carried out using an iQ^TM5 cycler (Bio-Rad Laboratories). The cycling conditions used were: 30 s at 95 °C, followed by 40 cycles of denaturation (15 s at 95 °C) and annealing/extension (30 s at 60 °C). The same cDNA preparations were used to quantify the expression of genes of interest and that of the housekeeping gene S14, which was used to normalize the gene expression levels. Relative quantitation of each sample was performed using Gene Expression Quantitation software (Bio-Rad Laboratories). The results were expressed in arbitrary units. For each gene, the expression level in untreated cells was arbitrarily set at “1”.

[3] = system: BxPC3 cells; design: method as in PMID 29287249; settings: cited from earlier work
[4] = system: PANC02 cells; design: method as in PMID 29287249; settings: cited from earlier work
[5] = system: AspC1 cells; design: method as in PMID 29287249; settings: cited from earlier work
[6] = system: MiaPaCa2 cells; design: method as in PMID 29287249; settings: cited from earlier work
[7] = system: KP02 cells; design: method as in PMID 29287249; settings: cited from earlier work
[8] = system: PANC-1 cells; design: method as in PMID 29287249; settings: cited from earlier work
[9] = system: PANC-1 xenografts; experiment: In vivo xenograft assay, PANC-1; design: species or system mice; settings: for tumor growth: gemcitabine 20 mg/kg twice a week
Protocol: 2 × 10^5 PANC-1 or Mia-PaCa2 cells were inoculated subcutaneously in the right flank of 6-week old C57BL/6 female nude mice (Charles River Laboratories Italia, Calco), housed (5 per cage) under a 12 h light/dark cycle, with food and drinking water provided ad libitum. Tumor growth was measured daily by caliper, according to the equation (LxW^2)/2, where L = tumor length and W = tumor width. When tumors reached a volume of 100 mm^3, the mice (n = 8/group) were randomized in the following groups and treated daily for 15 days or 30 days intraperitoneally as reported: (1) Vehicle group (100 µl saline solution), (2) FA4^low group (750 nmol FA4 in 100 µl saline solution), (3) FA4^high group (1500 nmol FA4 in 100 µl saline solution) and (4) Gemcitabine group (20 mg/kg gemcitabine, twice a week). Tumor volumes and animal weights were monitored daily. Animals were euthanized at day 18 or 36 after randomization with zolazepam (0.2 ml/kg) and xylazine (16 mg/kg). Next, tumors were excised and paraffin-embedded. Sections were immuno-stained for cleaved caspase 3 (Cell Signalling Technology, Danvers, MA, USA) or with an anti-malondialdehyde antibody (Abcam), followed by a peroxidase-conjugated secondary antibody (Dako, Glostrup, Denmark). The sections were examined under a Leica DC100 microscope (Leica, Wetzlar, Germany). Quantification of the immunohistochemical analyses was performed using ImageJ software (https://imagej.nih.gov/). The staining intensities were expressed as arbitrary units and considered 1 in the vehicle group.

[10] = Systemic toxicity and hematochemical parameters of treated PANC-1 tumor-bearing mice; settings: gemcitabine 20 mg/kg twice a week; mean ± SD
Protocol: 2 × 10^5 PANC-1 or Mia-PaCa2 cells were inoculated subcutaneously in the right flank of 6-week old C57BL/6 female nude mice (Charles River Laboratories Italia, Calco), housed (5 per cage) under a 12 h light/dark cycle, with food and drinking water provided ad libitum. Tumor growth was measured daily by caliper, according to the equation (LxW^2)/2, where L = tumor length and W = tumor width. […] Tumor volumes and animal weights were monitored daily. Animals were euthanized at day 18 or 36 after randomization with zolazepam (0.2 ml/kg) and xylazine (16 mg/kg). […] Red blood cell (RBC) count, hemoglobin (Hb), white blood cell (WBC) count, platelet (PLT) count, lactate dehydrogenase (LDH), aspartate aminotransferase (AST), alanine aminotransferase (ALT), alkaline phosphatase (AP), creatinine and creatine phosphokinase (CPK) were measured in blood samples collected immediately after euthanasia, using commercially available kits from Beckman Coulter Inc (Beckman Coulter, Miami, FL, USA).
Blood was collected immediately after euthanasia and analyzed for red blood cells (RBC) count, hemoglobin (Hb), white blood cells (WBC) count, platelets (PLT) count, lactate dehydrogenase (LDH), aspartate aminotransferase (AST), alanine aminotransferase (ALT), alkaline phosphatase (AP), creatinine, creatine phosphokinase (CPK). Data are presented as means ± SD.

[11] = system: MiaPaCa2 xenografts; experiment: In vivo xenograft assay, MiaPaCa2; design: species or system mice; settings: gemcitabine 20 mg/kg twice a week, 15 days
Protocol: 2 × 10^5 PANC-1 or Mia-PaCa2 cells were inoculated subcutaneously in the right flank of 6-week old C57BL/6 female nude mice (Charles River Laboratories Italia, Calco), housed (5 per cage) under a 12 h light/dark cycle, with food and drinking water provided ad libitum. Tumor growth was measured daily by caliper, according to the equation (LxW^2)/2, where L = tumor length and W = tumor width. When tumors reached a volume of 100 mm^3, the mice (n = 8/group) were randomized in the following groups and treated daily for 15 days or 30 days intraperitoneally as reported: (1) Vehicle group (100 µl saline solution), (2) FA4^low group (750 nmol FA4 in 100 µl saline solution), (3) FA4^high group (1500 nmol FA4 in 100 µl saline solution) and (4) Gemcitabine group (20 mg/kg gemcitabine, twice a week). Tumor volumes and animal weights were monitored daily. Animals were euthanized at day 18 or 36 after randomization with zolazepam (0.2 ml/kg) and xylazine (16 mg/kg). Next, tumors were excised and paraffin-embedded. […] Quantification of the immunohistochemical analyses was performed using ImageJ software (https://imagej.nih.gov/). The staining intensities were expressed as arbitrary units and considered 1 in the vehicle group.

[12] = system: sigma-1 and sigma-2 receptor subtypes; design: method as in PMID 24106081; settings: cited from earlier work

## CN(C)C(=S)N/N=C1\C(=O)Nc2ccccc21 [ACthio-1, (Z)-N,N-dimethyl-2-(2-oxoindolin-3-ylidene)hydrazinecarbothioamide]
[1]
  EC50: 10.5 µM
[2]
  mRNA expression of ER stress markers GRP78, ATF6, IRE1, PERK: none of the markers was increased in the other cells
[3]
  EC50: 2.52 µM
[4]
  EC50: 1.21 µM
[5]
  EC50: 2.17 µM
[6]
  EC50: 18.3 µM
[7]
  EC50: 2.83 µM
[8]
  EC50: > 100 µM

## CN(C)C(=S)N/N=C1\C(=O)N(CCCCN2CCN(C3CCCCC3)CC2)c2ccccc21 [PS3, (Z)-2-[1-[4-(4-cyclohexylpiperazin-1-yl)butyl]-2-oxoindolin-3-ylidene]-N,N-dimethylhydrazinecarbothioamide]
[1]
  EC50: 5.35 µM
[2]
  mRNA expression of ER stress markers GRP78, ATF6, IRE1, PERK: none of the markers was increased in the other cells
[3]
  EC50: 6.15 µM
[4]
  EC50: 1.17 µM
[5]
  EC50: 3.86 µM
[6]
  EC50: 10.1 µM
[7]
  EC50: 7.32 µM
[8]
  EC50: 8.73 µM

## Nc1ccn([C@@H]2O[C@H](CO)[C@@H](O)C2(F)F)c(=O)n1 [gemcitabine]
[9]; 15 days
  tumor growth: ineffective against this tumor cell line
[9]; 30 days
  tumor growth: not able to significantly reduce tumor growth
[9]; gemcitabine, 30 days
  intratumor apoptosis (cleaved caspase 3) and lipid peroxidation: low or undetectable
[10]
  ALT: 36±12 U/l
  AP: 134±43 U/l
  AST: 142±18 U/l
  CPK: 309±32 U/l
  Hb: 11.03 ± 1.94 g/dL
  LDH: 6704±832 U/l
  PLT: 931±165 x 10^3/µl
  RBC: 11.28±0.98 x 10^6/µl
  WBC: 12.18±2.39 x 10^3/µl
[11]
  tumor growth: MiaPaCa2 tumors were more sensitive to gemcitabine

## Fc1ccc(-n2cc(CCCCN3CCC4(CC3)OCc3ccccc34)c3ccccc32)cc1 [siramesine]
[12]
  binding to sigma-1 versus sigma-2 receptor subtypes: binds equally well to the sigma-1 and sigma-2 receptor subtypes

## COc1cc2c(cc1OC)CN(CCCCN1C(=O)/C(=N\NC(=S)N(C)C)c3ccccc31)CC2 [MLP44, (Z)-2-(1-(4-(6,7-dimethoxy-3,4-dihydroisoquinolin-2(1H)-yl)butyl)-2-oxoindolin-3-ylidene)-N,N-dimethylhydrazinecarbothioamide]
[1]
  EC50: 9.5 µM
[2]
  mRNA expression of ER stress markers GRP78, ATF6, IRE1, PERK: none of the markers was increased in the other cells
[3]
  EC50: 2.34 µM
[4]
  EC50: 1.33 µM
[5]
  EC50: 2.01 µM
[6]
  EC50: 14.6 µM
[7]
  EC50: 6.92 µM
[8]
  EC50: 14.6 µM
